According to article PMC6522510 (Nature Communications, 2019):
Like-named read-outs stand apart in the source and are kept apart here.

How the values were obtained:
Experiment in all cases: Secondary dose-response HTS, Cell Titer Glo; call rule not given here
Format in all cases: cell-based, human
CMS = settings: secondary high-throughput screen, CMS
CMK = settings: secondary high-throughput screen, CMK
M07e = settings: secondary high-throughput screen
CHRF288-11 = settings: secondary high-throughput screen, CHRF288-11
ML2 = settings: secondary high-throughput screen, ML-2; for EC50: read-out: average effective concentration, ML-2
U937 = settings: secondary high-throughput screen, U937
MV4-11 = settings: secondary high-throughput screen; MV4-11

| EC50 (U937; Homo sapiens, U-937, read-out: average effective concentration, U937) | Structure (SMILES) | EC50 (CMS; Homo sapiens, HTS, read-out: average effective concentration, CMS) | EC50 (CMK; Homo sapiens, read-out: average effective concentration, CMK) | EC50 (M07e; Homo sapiens, M-07e, M07e, read-out: average effective concentration, M07e) | EC50 (CHRF288-11; Homo sapiens, HTS, read-out: average effective concentration, CHRF288-11) | EC50 (ML2; Homo sapiens) | average effective concentration, MV4-11 (MV4-11) | average effective concentration, CMS (CMS) | average effective concentration, CMK (CMK) | average effective concentration, M07e (M07e; […]) | average effective concentration, CHRF288-11 (CHRF288-11) | average effective concentration, ML-2 (ML2) | average effective concentration, U937 (U937) | average effective concentration, M07e (M07e; M07e) | EC50 (ML2) |
| --- | --- | --- | --- | --- | --- | --- | --- | --- | --- | --- | --- | --- | --- | --- | --- |
| 680 nM | O=C(CCCCCN1C(=O)c2cccc3cccc(c23)C1=O)NO | 600 nM | 200 nM | 330 nM | 1700 nM | 4100 nM | – | – | – | – | – | – | – | – | – |
| – | C=C1C(=O)O[C@@H](CCC)[C@@H]1C(=O)O (racemic) [BUTYROLACTONE 3] | – | – | – | – | – | Inactive | Inactive | Inactive | Inactive | Inactive | Inactive | Inactive | – | – |
| – | O=c1[nH]c2ccccc2c2ccccc12 [6(5H)-PHENANTHRIDINONE] | – | – | – | – | – | Inactive | Inactive | Inactive | – | – | – | Inactive | Inactive | – |
| – | Cc1noc(-c2ccc(-c3ccc(CC(=O)O)cc3)cc2)c1NC(=O)O[C@H](C)c1ccccc1Cl [AM-966] | – | – | – | – | – | Inactive | Inactive | Inactive | – | Inactive | Inactive | Inactive | Inactive | – |
| – | CC(C)(O)[C@@H]1CC[C@](C)([C@H]2[C@@H](O)C[C@@]3(C)[C@@H]4C[C@H](O[C@@H]5O[C@H](CO)[C@@H](O)[C@H](O)[C@H]5O)[C@H]5C(C)(C)[C@@H](O[C@@H]6OC[C@@H](O)[C@H](O)[C@H]6O)CC[C@@]56C[C@@]46CC[C@]23C)O1 [ASTRAGALOSIDE IV] | – | – | – | – | – | Inactive | Inactive | Inactive | – | – | – | Inactive | Inactive | – |
| – | C/C(=C\C(=O)Nc1ccccc1C(=O)O)c1ccc2ccccc2c1 [BIBR-1532] | – | – | – | – | – | Inactive | Inactive | Inactive | – | – | – | Inactive | Inactive | – |
| – | CC(C)Oc1ccc(-c2cnc3c(-c4ccnc5ccccc45)cnn3c2)cc1 [DMH-1] | – | – | – | – | – | Inactive | Inactive | Inactive | – | Inactive | Inactive | Inactive | Inactive | – |
| – | O=C1NCCc2c(OCCCCN3CCCCC3)cccc21 [DPQ] | – | – | – | – | – | Inactive | Inactive | Inactive | – | Inactive | Inactive | Inactive | Inactive | – |
| – | O=C(CCCCCCSc1ccc2ccccc2c1)NO [HNHA] | – | – | – | – | – | Inactive | Inactive | Inactive | – | – | – | Inactive | Inactive | 8500 nM |
| – | O=C(c1ccc(Cl)cc1Cl)n1nnc2ccccc21 [ITSA1] | – | – | – | – | – | Inactive | Inactive | Inactive | – | – | – | Inactive | Inactive | – |
| – | Nc1ncnc2c1ncn2[C@@H]1C=C(CO)[C@@H](O)[C@H]1O [NEPLANOCIN A] | – | – | – | – | – | Inactive | Inactive | – | Inactive | – | – | – | – | – |
